Measurements from patent publication US20060241114A1, “Derivatives of azasugars as anticancer agents” (priority 2003, published 2006).

Columns and labels:
[1] = test system: DU145 (prostate carcinoma); test: In vitro growth inhibition screen (sulphorhodamine B), DU145; format: cell-based, human; conditions: DU145 cells, incubated for 48 hours, sulphorhodamine B dye; read-out: GI50 (concentration which inhibits the cell growth by 50%), DU145 Prostate carcinoma
Description: (§1) Each agent was tested over a broad concentration range (ten-fold dilutions starting from ≧100 μM to 10 nM) against 6 human cancer cell lines which was comprised of different tumor types. These are DU145 (prostate carcinoma), HT29 (colorectal adenocarcinoma), LOX (melanoma), MCF7 (breast adenocarcinoma), MCF7ADR (adriamycin resistant breast adenocarcinoma), and U251 (human glioblastoma). A standard compound doxorubicin was tested in each assay as a positive control. The cells were maintained in growing condition in RPMI 1640 medium containing 10% fetal calf serum and incubated at 37° C. under 5% CO2 atmosphere. All cell lines were inoculated onto a series of standard 96-well microtitre plate on day zero, followed by twenty four-hour incubation in the absence of test compound. The inoculation densities in the screen were as per Monk et al., (1991) J. Natl. Cancer Inst., 83, 757-766. All NCEs were dissolved in DMSO and diluted further in culture medium. An aliquot of each dilution was added to the growing cells in 96 well plates and incubated for 48 hours. After incubation, the assay was terminated by adding 50 μL of trichloroacetic acid (TCA) and incubating at 4° C. for 30 min. The precipitated cells were washed and stained with sulphorhodamine B dye for 30 min and the excess dye was washed off with acetic acid. Adsorbed dye was solubilised in Tris base (alkaline pH) and quantitated by measuring the OD at […] in ELISA READER. GI50 (concentration which inhibits the cell growth by 50%) was calculated according to Boyd and Paull, (1995) Drug Dev. Res., 34, 91-109.

[2] = test system: LOX (melanoma); test: In vitro growth inhibition screen (sulphorhodamine B), LOX; format: cell-based, human; conditions: LOX cells, incubated for 48 hours, sulphorhodamine B dye; read-out: GI50 (concentration which inhibits the cell growth by 50%), LOX Melanoma
Description: as §1

[3] = test system: HT29 (colorectal adenocarcinoma); test: In vitro growth inhibition screen (sulphorhodamine B), HT29; format: cell-based, human; conditions: HT29 cells, incubated for 48 hours, sulphorhodamine B dye; read-out: GI50 (concentration which inhibits the cell growth by 50%), HT29 Colorectal adenocarcinoma
Description: as §1

[4] = test system: U251 (human glioblastoma); test: In vitro growth inhibition screen (sulphorhodamine B), U251; format: cell-based; conditions: U251 cells, incubated for 48 hours, sulphorhodamine B dye; read-out: GI50 (concentration which inhibits the cell growth by 50%), U251 Human glioblastoma astrocytoma
Description: as §1

[5] = test system: MCF7 (breast adenocarcinoma); test: In vitro growth inhibition screen (sulphorhodamine B), MCF7; format: cell-based, human; conditions: MCF7 cells, incubated for 48 hours, sulphorhodamine B dye; read-out: GI50 (concentration which inhibits the cell growth by 50%), MCF7 Breast adenocarcinoma
Description: as §1

[6] = test system: MCF7ADR (adriamycin resistant breast adenocarcinoma); test: In vitro growth inhibition screen (sulphorhodamine B), MCF7ADR; format: cell-based, human; conditions: MCF7ADR cells, incubated for 48 hours, sulphorhodamine B dye; read-out: GI50 (concentration which inhibits the cell growth by 50%), MCF7ADR Adriamycin Resistant Breast adenocarcinoma
Description: as §1

| Compound | GI50 [1] | GI50 [2] | GI50 [3] | GI50 [4] | GI50 [5] | GI50 [6] |
| --- | --- | --- | --- | --- | --- | --- |
| CCCN1C(=O)[C@H](OCc2ccccc2)[C@@H](OCc2ccccc2)[C@H](OCc2ccccc2)[C@H]1CNC(=O)c1cccs1 [Compound No. 46, 2,3,4-Tri-O-benzyl-N-propyl-6-{[2-thiophene]carboxamido}-D-gluco-δ-lactam] | 83.8 µM | 178 µM | 3.3 µM | 105 µM | 18.4 µM | 83.4 µM |
| C=CCN1C(=O)C(OCc2ccccc2)C(OCc2ccccc2)C(OCc2ccccc2)C1COC(=O)Nc1ccc(Cl)cc1 [Compound No. 41, N-Allyl-6-O-(4-chlorophenylcarbamate)-2,3,4-tri-O-benzyl-D-gluco-δ-lactam] | 142 µM | > 664 µM | 71.2 µM | > 664 µM | 109 µM | > 664 µM |
| N-Allyl-2,3,4-tri-O-benzyl-1,5-dideoxy-1,5-imino-D-glucitol [Compound No. 71] | 14.5 µM | 9.5 µM | 3.5 µM | 8.3 µM | 5.4 µM | 9.2 µM |
| CCCN1C(=O)[C@H](OCc2ccccc2)[C@@H](OCc2ccccc2)[C@H](OCc2ccccc2)[C@H]1CNC(=O)Nc1c(Cl)cc(Cl)cc1Cl [Compound No. 17, 2,3,4-Tri-O-benzyl-6-N-{[2,4,6-trichlorophenyl]aminocarbonylamino}-N-propyl-D-gluco-δ-lactam] | 82.2 µM | 170 µM | 213 µM | 206 µM | > 528 µM | 348 µM |
| O[C@H]1[C@H](O)[C@@H](Cn2cncn2)NC[C@@H]1O [Compound No. 72, 1,5-Dideoxy-1,5-imino-6-triazolyl-glucitol] | 340 µM | 146 µM | 244 µM | 282 µM | 208 µM | 275 µM |
| CCCN1C(=O)[C@H](O)[C@@H](O)[C@H](O)[C@H]1CN1C(=O)CCCC1=O [Compound No. 87, 6-(2,6-Diketopiperidino)-N-propyl-D-gluco-δ-lactam] | 131 µM | 244 µM | 108 µM | 101 µM | 74.2 µM | 96.9 µM |
| CCCN1C(=O)C(OCc2ccccc2)C(OCc2ccccc2)C(OCc2ccccc2)C1CNC(=O)NS(=O)(=O)c1ccc(Cl)cc1 [Compound No. 12, 2,3,4-Tri-O-benzyl-6-N-{[p-chlorophenylsulfonyl]aminocarbonylamino}-N-propyl-D-gluco-δ-lactam] | 48.7 µM | 41.6 µM | 29.3 µM | 61.8 µM | 88.2 µM | 35 µM |
| N-{4-[Phenyl]piperazinyl carboxamido}-D-gluco-δ-lactam [Compound No. 80] | 90.7 µM | 75.9 µM | 100 µM | 59.9 µM | 69.4 µM | 60.1 µM |
| CCCN1C(=O)[C@H](OCc2ccccc2)[C@@H](OCc2ccccc2)[C@H](OCc2ccccc2)[C@H]1CNC(=S)NC(C)C [Compound No. 8, 2,3,4-Tri-O-benzyl-6-N-{[isopropyl]aminothiocarbonylamino}-N-propyl-D-gluco-δ-lactam] | 3.4 µM | 2.2 µM | 9 µM | 2.5 µM | 1.3 µM | 0.6 µM |
| CCCN1C(=O)[C@H](OCc2ccccc2)[C@@H](OCc2ccccc2)[C@H](OCc2ccccc2)[C@H]1CNC(=O)Cn1cncn1 [Compound No. 53, 2,3,4-Tri-O-benzyl-N-propyl-6-{2-[triazolyl]-acetyl}-D-gluco-δ-lactam] | 8.8 µM | 8.3 µM | 9.3 µM | 12.9 µM | 6.6 µM | 10 µM |
| C=CCN1C(=O)[C@H](OCc2ccccc2)[C@@H](OCc2ccccc2)[C@H](OCc2ccccc2)[C@H]1Cn1ccnn1 [Compound No. 69, N-Allyl-2,3,4-tri-O-benzyl-6-triazolyl-D-gluco-δ-lactam] | 51 µM | 47.4 µM | 31.6 µM | 37.9 µM | 47.8 µM | 39.4 µM |
| CCCN1C(=O)[C@H](OCc2ccccc2)[C@@H](OCc2ccccc2)[C@H](OCc2ccccc2)[C@H]1CNC(=O)CN1CCN(c2ccc(F)cc2)CC1 [Compound No. 58, 2,3,4-Tri-O-benzyl-6-N-{2-[4-(4-fluorophenyl)-piperazin-1-yl]acetyl}-N-propyl-D-gluco-δ-lactam] | 19.4 µM | 2.8 µM | 7.9 µM | 13.4 µM | 8.2 µM | 10.2 µM |
| CCCN1C(=O)[C@H](OCc2ccccc2)[C@@H](OCc2ccccc2)[C@H](OCc2ccccc2)[C@H]1CNC(=O)Nc1ccc(C(F)(F)F)cc1 [Compound No. 22, 2,3,4-Tri-O-benzyl-6-N-{[4-trifluoromethylphenyl]aminocarbonylamino}-N-propyl-D-gluco-δ-lactam] | 5.1 µM | 4.3 µM | 11.9 µM | 5.1 µM | 39.8 µM | 8.2 µM |
| 2,3,4-Tri-O-benzyl-6-(trifluoromethylacetamido)-N-propyl-D-gluco-δ-lactam [Compound No. 51] | 43.7 µM | 13.6 µM | 6.8 µM | 10.3 µM | 9.9 µM | 16 µM |
| CCCN1C(=O)[C@H](O)[C@@H](O)[C@H](O)[C@H]1COC(=O)Nc1ccccc1 [Compound No. 43, N-Propyl-6-(phenylcarbamate)-N-propyl-D-gluco-δ-lactam] | 226 µM | 161 µM | 208 µM | 235 µM | 115 µM | 280 µM |
| C=CCN1C(=O)C(OCc2ccccc2)C(OCc2ccccc2)C(OCc2ccccc2)C1Cn1ncn(-c2ccc(Cl)cc2)c1=O [Compound No. 81, 2,3,4-Tri-O-benzyl-6-[4-chlorophenyl-3(2H,4H)-1,2,4-triazol-3-onyl]-N-allyl-D-gluco-δ-lactam] | 70.1 µM | 11.9 µM | 49.5 µM | > 250 µM | 102 µM | 77 µM |
| CCCN1C(=O)[C@H](OCc2ccccc2)[C@@H](OCc2ccccc2)[C@H](OCc2ccccc2)[C@H]1CNC(=O)CN1C[C@H](OCc2ccccc2)[C@@H](OCc2ccccc2)[C@H](OCc2ccccc2)[C@H]1COCc1ccccc1 [Compound No. 61, 2,3,4-Tri-O-benzyl-6-N-{2-[2,3,4,6-tetra-O-benzyl-1,5-dideoxy-1,5-imino-glucitolyl]acetyl}-N-propyl-D-gluco-δ-lactam] | 195 µM | > 618 µM | > 618 µM | > 618 µM | > 618 µM | > 618 µM |
| CCCN1C(=O)[C@H](O)[C@@H](O)[C@H](O)[C@H]1CNC(=O)Nc1ccc(C(F)(F)F)cc1 [Compound No. 31, 6-N-{[4-Trifluoromethylphenyl]aminocarbonylamino}-N-propyl-D-gluco-δ-lactam] | 113 µM | 132 µM | 79.5 µM | 82.2 µM | 139 µM | 131 µM |
| CCCN1C(=O)C(OCc2ccccc2)C(OCc2ccccc2)C(OCc2ccccc2)C1CNC(=O)Nc1ccc(Cl)cc1 [Compound No. 3, 2,3,4-Tri-O-benzyl-6-N-{[4-chlorophenyl]aminocarbonylamino}-N-propyl-D-gluco-δ-lactam] | 2 µM | 2.1 µM | 6.1 µM | 1.1 µM | 0.8 µM | 8.2 µM |
| CCCN1C[C@H](OCc2ccccc2)[C@@H](OCc2ccccc2)[C@H](OCc2ccccc2)[C@H]1CNC(=O)Nc1ccc(Cl)cc1 [Compound No. 36] | 16.7 µM | 0.9 µM | 0.8 µM | 11.7 µM | 0.3 µM | 19.1 µM |
| CCCN1C(=O)[C@H](OCc2ccccc2)[C@@H](OCc2ccccc2)[C@H](OCc2ccccc2)[C@H]1CNC(=S)Nc1ccccc1 [Compound No. 9, 2,3,4-Tri-O-benzyl-6-N-{[phenyl]aminothiocarbonylamino}-N-propyl-D-gluco-δ-lactam] | 22.1 µM | 6.9 µM | 40 µM | 20.2 µM | 35.8 µM | 13.9 µM |
